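Values below derive from 48-hour exposures of cells grown in 96-well plates, with endpoints linearly interpolated between the two concentrations bracketing the appropriate inhibition level. GI50 = concentration required for 50% inhibition of growth.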 Activity calls are given as the source filed them. No stated cut-off is given here; in the data, active = GI50 up to about 1.1 µM and inactive = higher.
Key:
Assay in all cases: NCI anticancer screen, dose series, 48 h
Hs-578T = system: Hs-578T
SK-MEL-2 = system: SK-MEL-2
MCF7 = system: MCF7
M14 = system: M14
NCI-H23 = system: NCI-H23
DU-145 = system: DU-145
UACC-257 = system: UACC-257
MDA-N = system: MDA-N

Measured: GI50

COP(C)(=O)/C(Cc1ccccc1)=N\O (stereo not drawn)
inactive: Hs-578T > 100 µM | SK-MEL-2 > 100 µM | MCF7 > 100 µM | M14 > 100 µM | NCI-H23 > 100 µM | DU-145 > 100 µM | UACC-257 > 100 µM | MDA-N > 100 µM
